Drawing on ChEMBL document CHEMBL1201862, “PubChem BioAssay data set” (2004), this text covers IC50, EC50 and AC50 for six compounds.

Experiment [1] addresses T1, Mannose-6-phosphate isomerase (Homo sapiens, UniProt P34949).
T1 sequence (P34949 whole entry): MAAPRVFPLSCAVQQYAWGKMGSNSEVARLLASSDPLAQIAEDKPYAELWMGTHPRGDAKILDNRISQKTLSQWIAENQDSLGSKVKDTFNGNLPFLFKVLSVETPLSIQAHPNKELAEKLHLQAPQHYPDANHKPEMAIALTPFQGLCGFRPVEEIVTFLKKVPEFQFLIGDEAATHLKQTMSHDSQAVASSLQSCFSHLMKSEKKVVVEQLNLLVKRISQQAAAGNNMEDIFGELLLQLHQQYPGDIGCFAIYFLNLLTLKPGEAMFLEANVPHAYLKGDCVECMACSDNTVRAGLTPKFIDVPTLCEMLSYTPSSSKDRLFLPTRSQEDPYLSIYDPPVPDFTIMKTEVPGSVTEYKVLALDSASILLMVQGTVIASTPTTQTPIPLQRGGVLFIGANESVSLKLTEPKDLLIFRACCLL
In words: MPI inhibition at elevated mannose 6-phosphate – biochemical, fluorescence intensity, high mannose 6-phosphate, primary screen (AID 1220).

A further experiment addresses SUMO-activating enzyme (Homo sapiens, UniProt Q9UBT2). Kind of experiment: blockers of SAE1/SAE2–UBC9 SUMO transfer – biochemical, HTRF, uHTS, primary screen (AID 2006). The experiment is classed as protein-complex assay.
Experiment [2] concerns the target T2, Voltage-gated N-type calcium channel alpha-1B subunit/Amyloid beta A4 precursor protein-binding family A member 1 (Homo sapiens, UniProt Q00975+Q02410). The experiment is classed as protein assay.
Experiment [3] has as its target T2, Voltage-gated N-type calcium channel alpha-1B subunit/Amyloid beta A4 precursor protein-binding family A member 1. The experiment is classed as protein assay. This is another data set of the same source.
Experiment [4] has as its target T3, Polyadenylate-binding protein 1 (Homo sapiens, UniProt P11940). Kind of experiment: MLLE binding blockers, Cy5 peptide tracer – biochemical, fluorescence polarization, Cy5-PAM2 peptide, secondary, miRNA deadenylation inhibitor project, dose response (AID 602260). The experiment is classed as functional. Particulars: read-out: IC50_Mean.
Experiment [5] addresses T3, Polyadenylate-binding protein 1. In words: MLLE domain peptide-binding blockers, IC50 – biochemical, fluorescence polarization, FITC-PAM2 peptide, dose response (AID 602259). The experiment is classed as functional. Particulars: read-out: IC50_Mean.
The next experiment addresses Aminopeptidase N (Plasmodium falciparum FcB1/Columbia, UniProt O96935). In words: malaria alanyl aminopeptidase activity blockers – biochemical, fluorogenic H-Leu-NHMec substrate, 1536-well (AID 1445). Set-up: species or system Plasmodium falciparum 3D7, 3D7.
Another experiment deals with T4, Streptokinase A (Streptococcus pyogenes serotype M1, UniProt P10520).
T4 sequence (P10520 whole entry): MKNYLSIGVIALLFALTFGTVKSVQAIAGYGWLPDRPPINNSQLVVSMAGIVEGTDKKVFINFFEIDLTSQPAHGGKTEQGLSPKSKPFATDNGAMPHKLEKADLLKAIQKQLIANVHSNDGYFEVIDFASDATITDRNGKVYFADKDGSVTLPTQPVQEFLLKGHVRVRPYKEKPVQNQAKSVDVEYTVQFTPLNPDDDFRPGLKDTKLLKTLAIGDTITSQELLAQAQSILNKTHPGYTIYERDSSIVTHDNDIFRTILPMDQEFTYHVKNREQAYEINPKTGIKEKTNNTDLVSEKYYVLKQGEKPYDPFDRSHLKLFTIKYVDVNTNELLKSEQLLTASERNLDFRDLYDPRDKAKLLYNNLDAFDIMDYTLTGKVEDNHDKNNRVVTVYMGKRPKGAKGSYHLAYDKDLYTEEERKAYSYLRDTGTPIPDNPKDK
In words: viability-normalized secreted streptokinase activity reduction – plasminogen activation absorbance, OD405, dose response (AID 1914).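 Note: secreted streptokinase activity via plasminogen activation per viability signal from cell pellet.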 The experiment is classed as functional, Streptococcus pyogenes M1 GAS.

Experiment [6] deals with T5, Corticotropin-releasing factor receptor 2/Corticotropin-releasing factor-binding protein (Homo sapiens, UniProt P24387+Q13324).
T5 sequence (Q13324 whole entry): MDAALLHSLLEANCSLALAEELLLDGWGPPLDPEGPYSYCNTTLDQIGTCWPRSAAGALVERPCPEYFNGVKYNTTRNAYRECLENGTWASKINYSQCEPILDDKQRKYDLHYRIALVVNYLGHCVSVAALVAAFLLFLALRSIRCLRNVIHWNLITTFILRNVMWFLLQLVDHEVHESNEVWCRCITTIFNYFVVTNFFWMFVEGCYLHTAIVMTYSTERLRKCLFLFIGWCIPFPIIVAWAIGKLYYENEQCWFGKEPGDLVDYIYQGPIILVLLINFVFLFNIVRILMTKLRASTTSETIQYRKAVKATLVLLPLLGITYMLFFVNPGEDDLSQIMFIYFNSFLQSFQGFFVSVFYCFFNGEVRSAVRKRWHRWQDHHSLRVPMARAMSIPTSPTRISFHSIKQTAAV
T5 sequence (P24387 whole entry): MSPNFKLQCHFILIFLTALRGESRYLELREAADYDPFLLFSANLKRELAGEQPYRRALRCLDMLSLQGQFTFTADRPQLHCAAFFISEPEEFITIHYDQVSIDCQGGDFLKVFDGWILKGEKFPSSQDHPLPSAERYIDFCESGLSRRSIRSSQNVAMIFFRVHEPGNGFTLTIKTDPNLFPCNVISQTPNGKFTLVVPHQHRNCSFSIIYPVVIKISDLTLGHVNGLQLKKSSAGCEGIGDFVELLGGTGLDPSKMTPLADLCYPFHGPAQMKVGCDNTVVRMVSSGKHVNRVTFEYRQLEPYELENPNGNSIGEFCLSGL
Kind of experiment: Dose Response confirmation of uHTS hits for small molecule antagonists of the CRF-binding protein and CRF-R2 receptor complex. Particulars: read-out: IC50_Mean. The experiment is classed as functional.

A short description of experiment [7]: HEK-293T viability loss after treatment – luminescence, T-cell screen hits, cytotoxicity control for TCR NF-kB inhibitor project, dose response (AID 489026).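 Note: cells exposed to compound about 14 hours before the viability readout.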 The experiment is classed as functional, cell-based.
In experiment [8] the target is COUP transcription factor 2 (Homo sapiens, UniProt P24468). Kind of experiment: Luminescence-based cell-based high throughput dose response assay to identify inhibitors of COUP-TFII (NR2F2). The experiment is classed as functional.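 Note: HEK293 cells transiently cotransfected with COUP-TFII expression vector and reporter; luciferase reporter luminescence driven by COUP-TFII from the pX2-168 reporter plasmid.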
Experiment [9] relates to Streptococcus sp. 'group A'. In words: Streptococcus pyogenes SK(-)GAS viability under kanamycin – luminescence, BacTiterGlo, confirmation, counter-screen for streptokinase expression inhibitor project, dose response (AID 1900). The experiment is classed as functional, organism-based.
In experiment [10] the target is T5, Corticotropin-releasing factor receptor 2/Corticotropin-releasing factor-binding protein. In words: activators of CRF receptor 2 with binding protein – uHTS hits, confirmation (AID 602473). The experiment is classed as functional. Particulars: read-out: EC50_Mean.
The subject of another experiment is Streptococcus. Kind of experiment: GAS UMAA2166 growth inhibition – luminescence, BacTiterGlo, counter-screen for streptokinase expression inhibitor project, dose response (AID 1915).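 Note: potency for reduction of bacterial viability or growth.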 The experiment is classed as functional, organism-based.
The target in a further experiment is T6, CAAX prenyl protease 2 (Saccharomyces cerevisiae S288c, UniProt Q03530).
T6 sequence (Q03530 whole entry): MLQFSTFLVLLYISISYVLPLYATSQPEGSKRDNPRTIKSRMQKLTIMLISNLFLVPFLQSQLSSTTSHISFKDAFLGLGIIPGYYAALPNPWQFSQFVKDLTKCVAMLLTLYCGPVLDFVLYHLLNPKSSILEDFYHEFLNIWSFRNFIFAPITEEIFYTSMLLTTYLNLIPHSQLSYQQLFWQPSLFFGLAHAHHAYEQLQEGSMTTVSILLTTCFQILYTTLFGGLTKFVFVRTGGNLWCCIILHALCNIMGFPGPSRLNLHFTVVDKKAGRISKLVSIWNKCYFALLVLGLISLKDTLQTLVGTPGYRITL
The experiment is classed as biochemical.

Another experiment concerns the target Trypsin (Sus scrofa, UniProt P00761). Kind of experiment: trypsin protease activity blockade – biochemical, quenched peptide fluorescence, cherry-pick, selectivity assay for Rce1 protease inhibitor project, dose response (AID 488789).
The next experiment has as its target T7, Hexokinase HKDC1 (Homo sapiens, UniProt Q2TB90).
T7 sequence (Q2TB90 whole entry): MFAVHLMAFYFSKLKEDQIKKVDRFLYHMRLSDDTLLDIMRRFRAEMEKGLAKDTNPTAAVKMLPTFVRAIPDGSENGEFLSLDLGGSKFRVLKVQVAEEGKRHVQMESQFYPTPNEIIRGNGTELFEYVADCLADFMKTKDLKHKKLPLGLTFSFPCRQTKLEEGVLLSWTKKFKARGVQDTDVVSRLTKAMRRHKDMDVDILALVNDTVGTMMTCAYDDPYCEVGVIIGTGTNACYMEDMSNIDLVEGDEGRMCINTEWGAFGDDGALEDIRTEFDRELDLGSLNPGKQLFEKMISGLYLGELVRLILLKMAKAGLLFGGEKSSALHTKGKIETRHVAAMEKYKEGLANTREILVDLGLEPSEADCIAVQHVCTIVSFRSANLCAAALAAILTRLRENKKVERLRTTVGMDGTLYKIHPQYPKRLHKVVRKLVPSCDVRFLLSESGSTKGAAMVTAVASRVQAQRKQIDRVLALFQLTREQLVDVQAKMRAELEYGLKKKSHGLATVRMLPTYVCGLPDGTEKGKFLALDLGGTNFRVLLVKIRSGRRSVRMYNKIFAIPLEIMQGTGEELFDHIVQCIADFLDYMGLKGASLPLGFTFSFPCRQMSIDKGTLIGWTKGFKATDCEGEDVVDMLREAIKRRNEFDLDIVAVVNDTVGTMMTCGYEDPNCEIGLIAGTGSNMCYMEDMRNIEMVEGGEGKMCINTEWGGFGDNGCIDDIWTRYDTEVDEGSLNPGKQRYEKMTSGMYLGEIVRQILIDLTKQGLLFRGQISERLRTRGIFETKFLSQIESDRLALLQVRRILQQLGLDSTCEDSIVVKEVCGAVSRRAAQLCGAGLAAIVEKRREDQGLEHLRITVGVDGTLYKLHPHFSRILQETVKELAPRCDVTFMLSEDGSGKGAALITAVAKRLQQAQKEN
In words: inhibition of HKDC1 glucose phosphorylation – biochemical, W721R variant, dose response (AID 504729). The experiment is classed as functional.

The nature of experiment [11]: viability of PTEN-deleted HCT116 cells – cell-based, HCT116 PTEN knockout, dose response (AID 1047).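 Note: HCT116 colon tumor cells with PTEN knocked out; cells exposed to compound for 60 hours before readout; potency for loss of cell viability measured by luminescence.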 The experiment is classed as functional.
The nature of experiment [12]: Fluorescence-based cell-based high throughput dose response assay for inhibitors of the interaction of nucleotide-binding oligomerization domain containing 2 (NOD2) and the receptor-interacting serine-threonine kinase 2 (RIPK2). The experiment is classed as functional. Particulars: Homo sapiens.
A short description of experiment [13]: viability of HCT116 lacking mutant beta-catenin – cell-based, human colon tumor, dose response (AID 1045).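 Note: HCT116 colon tumor cells with beta catenin knocked out; cells exposed to compound for 60 hours.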 The experiment is classed as functional.
Another experiment addresses Beta Lactamase (Pseudomonas aeruginosa, UniProt Q932Y6). Kind of experiment: BLA reporter interference, concentration series – BLA reporter cells, FRET fluorescence, artefact control for NOD2-RIPK2 interaction inhibitor project, dose response (AID 651552). The experiment is classed as functional, cell-based.

Active and inactive are the calls of the source.

T3 sequence (P11940 whole entry, the tested form may be a part): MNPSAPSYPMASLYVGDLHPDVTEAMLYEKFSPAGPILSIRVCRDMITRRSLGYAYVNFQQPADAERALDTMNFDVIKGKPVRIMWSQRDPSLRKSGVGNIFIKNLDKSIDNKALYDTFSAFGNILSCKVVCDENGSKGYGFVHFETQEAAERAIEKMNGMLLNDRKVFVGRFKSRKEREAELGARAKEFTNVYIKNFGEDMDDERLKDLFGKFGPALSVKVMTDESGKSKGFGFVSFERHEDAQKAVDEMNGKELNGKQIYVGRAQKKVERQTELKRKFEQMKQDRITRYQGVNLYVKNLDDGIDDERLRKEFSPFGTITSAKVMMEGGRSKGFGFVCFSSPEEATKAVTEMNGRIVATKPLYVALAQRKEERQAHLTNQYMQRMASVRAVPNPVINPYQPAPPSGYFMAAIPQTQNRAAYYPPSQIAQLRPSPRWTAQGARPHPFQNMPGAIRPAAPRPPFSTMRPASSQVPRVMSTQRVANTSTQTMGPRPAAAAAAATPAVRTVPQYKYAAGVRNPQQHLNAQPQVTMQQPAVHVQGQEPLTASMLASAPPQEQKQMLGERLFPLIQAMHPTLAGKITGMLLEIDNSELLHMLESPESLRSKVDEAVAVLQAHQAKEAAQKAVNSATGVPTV
T2 sequence (Q00975 whole entry): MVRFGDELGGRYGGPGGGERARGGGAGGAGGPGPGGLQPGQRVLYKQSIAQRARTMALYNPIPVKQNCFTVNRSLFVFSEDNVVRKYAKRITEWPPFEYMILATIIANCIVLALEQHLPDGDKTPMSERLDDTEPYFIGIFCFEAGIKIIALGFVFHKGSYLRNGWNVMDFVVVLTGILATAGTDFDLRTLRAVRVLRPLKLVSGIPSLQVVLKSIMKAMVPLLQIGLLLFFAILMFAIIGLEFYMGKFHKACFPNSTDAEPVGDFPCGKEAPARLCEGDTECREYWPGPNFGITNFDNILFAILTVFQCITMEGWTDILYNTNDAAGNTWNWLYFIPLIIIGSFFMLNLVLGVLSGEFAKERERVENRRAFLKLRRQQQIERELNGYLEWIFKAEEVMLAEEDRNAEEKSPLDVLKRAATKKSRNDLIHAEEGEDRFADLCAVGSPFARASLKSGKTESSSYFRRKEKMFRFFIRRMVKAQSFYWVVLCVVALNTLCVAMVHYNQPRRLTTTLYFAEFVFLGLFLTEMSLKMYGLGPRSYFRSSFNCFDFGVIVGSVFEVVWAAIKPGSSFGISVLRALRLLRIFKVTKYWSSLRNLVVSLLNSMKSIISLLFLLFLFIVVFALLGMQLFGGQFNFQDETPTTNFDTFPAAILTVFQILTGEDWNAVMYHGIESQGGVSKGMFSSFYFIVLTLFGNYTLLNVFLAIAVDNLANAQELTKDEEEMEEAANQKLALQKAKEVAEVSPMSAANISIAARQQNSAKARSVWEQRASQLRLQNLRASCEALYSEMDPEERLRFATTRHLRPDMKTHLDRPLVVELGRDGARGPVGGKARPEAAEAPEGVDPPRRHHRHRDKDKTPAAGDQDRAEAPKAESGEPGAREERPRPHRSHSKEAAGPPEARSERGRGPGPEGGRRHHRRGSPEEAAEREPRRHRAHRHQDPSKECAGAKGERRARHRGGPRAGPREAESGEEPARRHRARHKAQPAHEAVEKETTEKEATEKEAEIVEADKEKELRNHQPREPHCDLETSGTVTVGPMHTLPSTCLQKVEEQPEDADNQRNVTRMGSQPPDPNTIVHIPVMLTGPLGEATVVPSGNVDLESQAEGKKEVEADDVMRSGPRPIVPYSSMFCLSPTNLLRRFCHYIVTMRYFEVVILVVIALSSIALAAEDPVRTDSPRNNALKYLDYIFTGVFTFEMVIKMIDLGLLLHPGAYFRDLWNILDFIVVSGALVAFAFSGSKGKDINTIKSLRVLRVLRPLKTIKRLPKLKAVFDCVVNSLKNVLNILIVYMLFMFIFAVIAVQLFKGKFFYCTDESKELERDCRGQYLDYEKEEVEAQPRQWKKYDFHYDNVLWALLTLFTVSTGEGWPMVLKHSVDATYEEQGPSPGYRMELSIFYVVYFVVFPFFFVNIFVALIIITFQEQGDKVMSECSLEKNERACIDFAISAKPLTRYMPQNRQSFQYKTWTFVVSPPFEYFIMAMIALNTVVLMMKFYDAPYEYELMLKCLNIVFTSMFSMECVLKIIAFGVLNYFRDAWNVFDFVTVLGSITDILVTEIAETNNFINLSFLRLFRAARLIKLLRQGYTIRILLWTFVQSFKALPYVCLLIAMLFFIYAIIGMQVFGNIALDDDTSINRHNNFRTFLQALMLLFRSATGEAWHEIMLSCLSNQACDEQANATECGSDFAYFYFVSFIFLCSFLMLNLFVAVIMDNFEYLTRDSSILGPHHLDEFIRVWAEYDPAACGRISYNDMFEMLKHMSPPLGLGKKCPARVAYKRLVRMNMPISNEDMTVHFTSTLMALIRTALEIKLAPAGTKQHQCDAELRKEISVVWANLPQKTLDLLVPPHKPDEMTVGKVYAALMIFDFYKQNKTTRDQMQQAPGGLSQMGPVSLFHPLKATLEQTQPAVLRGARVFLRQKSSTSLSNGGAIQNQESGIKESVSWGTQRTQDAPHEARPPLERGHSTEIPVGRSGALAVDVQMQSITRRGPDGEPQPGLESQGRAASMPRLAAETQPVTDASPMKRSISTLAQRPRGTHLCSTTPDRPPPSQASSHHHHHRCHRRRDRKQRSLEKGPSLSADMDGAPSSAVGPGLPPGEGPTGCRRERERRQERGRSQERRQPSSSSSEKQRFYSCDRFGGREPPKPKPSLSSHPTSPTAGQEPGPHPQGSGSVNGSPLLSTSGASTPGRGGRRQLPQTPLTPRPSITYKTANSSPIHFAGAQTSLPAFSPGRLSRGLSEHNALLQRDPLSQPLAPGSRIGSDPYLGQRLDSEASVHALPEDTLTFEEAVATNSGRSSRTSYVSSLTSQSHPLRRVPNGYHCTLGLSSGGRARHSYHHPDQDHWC
T2 sequence (Q02410 whole entry): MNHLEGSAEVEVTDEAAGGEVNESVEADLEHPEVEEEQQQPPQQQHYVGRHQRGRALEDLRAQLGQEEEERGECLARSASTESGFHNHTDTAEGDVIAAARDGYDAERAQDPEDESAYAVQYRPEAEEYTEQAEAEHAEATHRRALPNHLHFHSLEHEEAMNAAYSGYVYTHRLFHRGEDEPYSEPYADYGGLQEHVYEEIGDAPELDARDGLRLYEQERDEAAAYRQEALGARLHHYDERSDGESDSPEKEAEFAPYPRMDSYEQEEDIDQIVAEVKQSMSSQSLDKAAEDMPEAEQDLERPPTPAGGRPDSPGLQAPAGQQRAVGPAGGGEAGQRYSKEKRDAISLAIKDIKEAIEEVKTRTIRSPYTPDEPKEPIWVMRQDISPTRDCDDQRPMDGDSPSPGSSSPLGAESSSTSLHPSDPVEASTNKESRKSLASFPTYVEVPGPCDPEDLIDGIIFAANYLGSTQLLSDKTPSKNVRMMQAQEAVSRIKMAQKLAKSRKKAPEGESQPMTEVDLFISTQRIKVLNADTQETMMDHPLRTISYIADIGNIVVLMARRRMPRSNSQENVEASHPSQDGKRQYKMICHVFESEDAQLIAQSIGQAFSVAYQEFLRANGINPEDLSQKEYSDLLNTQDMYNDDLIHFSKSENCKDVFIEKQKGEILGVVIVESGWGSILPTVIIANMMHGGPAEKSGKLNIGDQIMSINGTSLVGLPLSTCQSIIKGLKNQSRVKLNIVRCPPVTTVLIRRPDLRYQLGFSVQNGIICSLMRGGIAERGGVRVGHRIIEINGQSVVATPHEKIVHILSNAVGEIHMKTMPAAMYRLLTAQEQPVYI
Aminopeptidase N, sequence (O96935 whole entry): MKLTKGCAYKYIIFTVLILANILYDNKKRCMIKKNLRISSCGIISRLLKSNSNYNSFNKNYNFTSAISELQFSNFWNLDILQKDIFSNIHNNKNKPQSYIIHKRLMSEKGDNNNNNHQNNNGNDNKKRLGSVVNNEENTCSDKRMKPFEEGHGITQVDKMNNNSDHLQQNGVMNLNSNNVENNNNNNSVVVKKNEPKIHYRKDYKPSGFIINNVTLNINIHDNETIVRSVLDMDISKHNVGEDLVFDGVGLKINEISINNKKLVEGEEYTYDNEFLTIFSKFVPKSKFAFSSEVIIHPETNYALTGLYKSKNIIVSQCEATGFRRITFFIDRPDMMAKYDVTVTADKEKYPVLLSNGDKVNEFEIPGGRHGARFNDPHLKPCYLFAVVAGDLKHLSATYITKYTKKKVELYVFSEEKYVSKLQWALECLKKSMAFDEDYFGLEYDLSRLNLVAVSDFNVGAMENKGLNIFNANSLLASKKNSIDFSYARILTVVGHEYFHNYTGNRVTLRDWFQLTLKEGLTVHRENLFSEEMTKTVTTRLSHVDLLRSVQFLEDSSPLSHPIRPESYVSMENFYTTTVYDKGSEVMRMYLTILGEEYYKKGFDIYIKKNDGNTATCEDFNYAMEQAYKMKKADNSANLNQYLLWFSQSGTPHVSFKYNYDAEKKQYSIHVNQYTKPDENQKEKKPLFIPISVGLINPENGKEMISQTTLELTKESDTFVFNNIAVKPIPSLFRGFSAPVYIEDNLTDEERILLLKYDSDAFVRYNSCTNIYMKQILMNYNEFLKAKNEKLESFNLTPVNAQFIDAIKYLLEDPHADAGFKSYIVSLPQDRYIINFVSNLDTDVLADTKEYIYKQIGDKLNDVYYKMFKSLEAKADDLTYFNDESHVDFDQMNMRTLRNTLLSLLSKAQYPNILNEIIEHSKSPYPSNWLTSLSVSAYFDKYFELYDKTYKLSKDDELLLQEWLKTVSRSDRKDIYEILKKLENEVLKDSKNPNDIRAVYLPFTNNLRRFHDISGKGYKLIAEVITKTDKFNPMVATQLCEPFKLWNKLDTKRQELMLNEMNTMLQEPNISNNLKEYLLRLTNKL
Trypsin, sequence (P00761 whole entry): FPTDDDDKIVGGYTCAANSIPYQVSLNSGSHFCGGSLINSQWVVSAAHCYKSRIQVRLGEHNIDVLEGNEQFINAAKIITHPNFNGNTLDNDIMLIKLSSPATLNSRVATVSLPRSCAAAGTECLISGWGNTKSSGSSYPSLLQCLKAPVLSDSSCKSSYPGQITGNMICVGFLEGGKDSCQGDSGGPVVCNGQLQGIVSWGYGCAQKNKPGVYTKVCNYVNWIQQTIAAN

With `CCN(CC)C(=O)C1CCCN(C(=O)Nc2ccc3nsnc3c2)C1` (stereo unspecified), the results for the IC50 (in experiment [1]; on SUMO-activating enzyme) were > 50 µM (not active) and 12 µM (active), respectively.
For `COc1ccc(-c2cc3c(=O)n(CC(=O)Nc4ccc(C(C)=O)cc4)ncn3n2)cc1`, the IC50 in experiment [2] was > 50 µM (inactive); in experiment [3], 7.89 µM (active).
As to `CCNc1cc2oc(=O)c(CN3CCOCC3)c(C)c2cc1C`, the IC50 was > 66 µM (inactive) in experiment [4], > 66 µM (inactive) in experiment [5] and 32.2 µM (active) on Aminopeptidase N.
As for `COc1ccc(-c2ccc3oc(-c4ccc(OC)cc4)c(C#CCO)c3c2)cc1`, the EC50 was > 150 µM (not active) on Streptokinase A, > 150 µM (not active) in experiment [9], > 53 µM (inactive) in [10] and > 150 µM (not active) with Streptococcus. The IC50 is > 47.1 µM (inactive) in [6], > 80 µM (inactive) in experiment [7] and 3.38 µM (active) in experiment [8].
As for `CCn1cc(/C=C(\NC(=O)c2ccccc2)C(=O)N2CCOCC2)c2ccccc21`, the AC50 is 5.85 µM (active) on CAAX prenyl protease 2 and 23.6 µM (active) on Trypsin.
As for `CC(C)(C=O)C1=CC(=O)c2ccccc2C1=O`, the figures for the IC50 (at Hexokinase HKDC1; in experiment [12]; at Beta Lactamase) were 27.9 µM (inactive), 1.23 µM (active) and 11.5 µM (inactive), respectively. In addition, the EC50 in [11] is 4.68 µM (active); in experiment [13], 4.58 µM (active).
